Test results from PubChem BioAssay AID330 (DTP/NCI, 2004).
Where “and” joins values, the source holds several entries; their conditions need not be identical. Identical values can stand only once. Toxic doses and inconclusive results are not listed. Rule for the calls: active = survival T/C of 150% or more; inactive = T/C below 125% in these data.

Test system: P388 leukemia ip, CD2F1 mice, survival T/C
Assay: NCI In Vivo Anticancer Drug Screen. Data for tumor model P388 Leukemia (intraperitoneal) in CD2F1 (CDF1) mice
Conditions: endpoint: median survival time, higher = longer survival
Summary of the method: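 Mice carrying the transplanted tumor received test compound or vehicle. Survival was recorded in each group, and the value is the treated-group measurement divided by that of the vehicle-treated control group.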

[1] = dose: 50.0 mg/kg/injection, schedule: Q01DX005 (ip), vehicle: Klucel (hydroxypropylcellulose) (HPC)
[2] = dose: 100.0 mg/kg/injection, schedule: Q01DX005 (ip), vehicle: Klucel (hydroxypropylcellulose) (HPC)
[3] = dose: 200.0 mg/kg/injection, schedule: Q01DX005 (ip), vehicle: Klucel (hydroxypropylcellulose) (HPC)
[4] = dose: 100.0 mg/kg/injection, schedule: Q01DX001 (ip), vehicle: saline with Tween-80
[5] = dose: 200.0 mg/kg/injection, schedule: Q01DX001 (ip), vehicle: saline with Tween-80
[6] = dose: 50.0 mg/kg/injection, schedule: Q01DX009 (ip), vehicle: saline with Tween-80
[7] = dose: 100.0 mg/kg/injection, schedule: Q01DX009 (ip), vehicle: saline with Tween-80
[8] = dose: 12.5 mg/kg/injection, schedule: Q01DX009 (ip), vehicle: saline
[9] = dose: 25.0 mg/kg/injection, schedule: Q01DX009 (ip), vehicle: saline
[10] = dose: 50.0 mg/kg/injection, schedule: Q01DX009 (ip), vehicle: saline
[11] = dose: 100.0 mg/kg/injection, schedule: Q01DX009 (ip), vehicle: saline
[12] = dose: 200.0 mg/kg/injection, schedule: Q01DX009 (ip), vehicle: saline
[13] = dose: 60.0 mg/kg/injection, schedule: Q01DX005 (ip), vehicle: saline
[14] = dose: 120.0 mg/kg/injection, schedule: Q01DX005 (ip), vehicle: saline

Measured: T/C

Cc1ccc(S(=O)(=O)N2C(=N)C(=S)N(C)C2=O)cc1
inactive: dose: 60.0 mg/kg/injection, schedule: Q01DX005 (ip), vehicle: Klucel + Tween-80 101 % of control | dose: 120.0 mg/kg/injection, schedule: Q01DX005 (ip), vehicle: Klucel + Tween-80 111 % of control | dose: 240.0 mg/kg/injection, schedule: Q01DX005 (ip), vehicle: Klucel + Tween-80 114 % of control

O=C1c2ccccc2CN(c2ccccc2)C(=Nc2ccccc2)N1c1ccccc1
inactive: dose: 50.0 mg/kg/injection, schedule: Q01DX005 (ip), vehicle: saline with Tween-80 95 % of control | dose: 100.0 mg/kg/injection, schedule: Q01DX005 (ip), vehicle: saline with Tween-80 93 % of control | dose: 200.0 mg/kg/injection, schedule: Q01DX005 (ip), vehicle: saline with Tween-80 95 % of control

COc1cc(CCN=Cc2cccc(OC)c2O)c([N+](=O)[O-])cc1OC
inactive: [1] 93 % of control | [2] 93 % of control | [3] 93 % of control

O=S1(=O)C=C(c2ccc3ccccc3c2)C1
inactive: [4] 105 % of control | [5] 100 % of control | dose: 400.0 mg/kg/injection, schedule: Q01DX001 (ip), vehicle: saline with Tween-80 96 % of control

CN(C)c1ccc2nc3ccc(=O)cc-3sc2c1
inactive: dose: 12.5 mg/kg/injection, schedule: Q01DX009 (ip), vehicle: saline with Tween-80 100 % of control | dose: 25.0 mg/kg/injection, schedule: Q01DX009 (ip), vehicle: saline with Tween-80 108 % of control | [6] 108 % of control | [7] 120 % of control and 122 % of control

CN(C)c1n[nH]c(N)n1
inactive: [8] 101 % of control | [9] 103 % of control | [10] 108 % of control and 95 % of control and 97 % of control | [11] 103 % of control and 104 % of control and 108 % of control | [12] 105 % of control and 97 % of control | dose: 400.0 mg/kg/injection, schedule: Q01DX009 (ip), vehicle: saline 105 % of control and 111 % of control and 113 % of control

OC(C1=CCCCC1)(c1ccccc1)c1ccccc1
inactive: dose: 25.0 mg/kg/injection, schedule: Q01DX005 (ip), vehicle: Klucel (hydroxypropylcellulose) (HPC) 98 % of control | [1] 100 % of control | [2] 90 % of control | [3] 91 % of control

CCO/C=N/NC(=O)CNC(=O)C=[N+]=[N-]
active: dose: 180.0 mg/kg/injection, schedule: Q01DX009 (ip), vehicle: water 172 % of control

N#CCCn1ncc(C#N)c1N
inactive: [1] 99 % of control | [2] 107 % of control | [3] 90 % of control

N#Cc1cccnc1.NCCNCCN.[Br-].[Pt+4]
inactive: [8] 100 % of control | [9] 96 % of control | [10] 105 % of control | [11] 103 % of control | [12] 102 % of control

COC(=O)CCSC(=O)NC(C)C
inactive: [1] 99 % of control | [2] 102 % of control | [3] 100 % of control

C=CC(O)CN1CC1 (stereo not drawn)
active: dose: 1.25 mg/kg/injection, schedule: Q01DX009 (ip), vehicle: saline 158 % of control | dose: 3.0 mg/kg/injection, schedule: Q04DX003 (ip), vehicle: saline 181 % of control | dose: 6.0 mg/kg/injection, schedule: Q04DX003 (ip), vehicle: saline 154 % of control | dose: 10.0 mg/kg/injection, schedule: Q04DX003 (ip), vehicle: saline 154 % of control
inactive: dose: 0.75 mg/kg/injection, schedule: Q04DX003 (ip), vehicle: saline 122 % of control
113 % of control and 212 % of control: dose: 2.5 mg/kg/injection, schedule: Q01DX009 (ip), vehicle: saline

CN1c2ccccc2SC12C(=S)N(c1ccccc1)C(=S)N2c1ccccc1 (stereo not drawn)
inactive: dose: 100.0 mg/kg/injection, schedule: Q04DX002 (ip), vehicle: saline with Tween-80 98 % of control | dose: 200.0 mg/kg/injection, schedule: Q04DX002 (ip), vehicle: saline with Tween-80 90 % of control | dose: 400.0 mg/kg/injection, schedule: Q04DX002 (ip), vehicle: saline with Tween-80 86 % of control

CCC1COCC1Cc1cncn1C (stereo not drawn)
inactive: [13] 100 % of control | [14] 103 % of control

C[Si](C)(CC[Si](C)(C)OS(C)(=O)=O)OS(C)(=O)=O
inactive: [1] 101 % of control | [2] 99 % of control | [3] 89 % of control

CC(=O)Nc1ccc2oc3ccc(Cl)cc3c(=O)c2c1
inactive: [1] 98 % of control | [2] 92 % of control | [3] 91 % of control

CN1CCCN(C)C1c1ccccc1O
inactive: dose: 12.5 mg/kg/injection, schedule: Q01DX009 (ip), vehicle: saline sonified 100 % of control | dose: 25.0 mg/kg/injection, schedule: Q01DX009 (ip), vehicle: saline sonified 90 % of control | dose: 50.0 mg/kg/injection, schedule: Q01DX009 (ip), vehicle: saline sonified 100 % of control

CN=C(NC)c1cccc(NC(=O)/C=C\c2ccc(/C=C/C(=O)Nc3cccc(C(=NC)NC)c3)cc2)c1
inactive: dose: 1.56 mg/kg/injection, schedule: Q01DX005 (ip), vehicle: saline with Tween-80 121 % of control

CCOC(=O)/N=[N+](\[O-])c1cccc(Cl)c1
inactive: [4] 110 % of control | [5] 102 % of control

O=C(O)CCN1CCCc2ccccc21
inactive: dose: 100.0 mg/kg/injection, schedule: Q04DX003 (ip), vehicle: other 100 % of control | dose: 200.0 mg/kg/injection, schedule: Q04DX003 (ip), vehicle: other 100 % of control | dose: 400.0 mg/kg/injection, schedule: Q04DX003 (ip), vehicle: other 109 % of control

CC(C)CC(NC(=O)CNC(=O)CN)C(=O)O (stereo not drawn)
inactive: [13] 102 % of control | [14] 99 % of control | dose: 240.0 mg/kg/injection, schedule: Q01DX005 (ip), vehicle: saline 106 % of control

COC1=C(OC)C(=O)C(SCCCc2ccccc2)=CC1=O
inactive: dose: 12.5 mg/kg/injection, schedule: Q04DX002 (ip), vehicle: saline with Tween-80 114 % of control | dose: 25.0 mg/kg/injection, schedule: Q04DX002 (ip), vehicle: saline with Tween-80 112 % of control | dose: 50.0 mg/kg/injection, schedule: Q04DX002 (ip), vehicle: saline with Tween-80 122 % of control

CCOC(=O)Cc1ccc(-c2csc(Nc3ccc(Cl)cc3)n2)cc1
inactive: dose: 100.0 mg/kg/injection, schedule: Q04DX003 (ip), vehicle: Klucel (hydroxypropylcellulose) (HPC) 96 % of control | dose: 200.0 mg/kg/injection, schedule: Q04DX003 (ip), vehicle: Klucel (hydroxypropylcellulose) (HPC) 104 % of control | dose: 400.0 mg/kg/injection, schedule: Q04DX003 (ip), vehicle: Klucel (hydroxypropylcellulose) (HPC) 106 % of control

O=C1CSC(=S)N1N1C(=O)CSC1=S
inactive: dose: 50.0 mg/kg/injection, schedule: Q01DX009 (ip), vehicle: Klucel (hydroxypropylcellulose) (HPC) 107 % of control | dose: 100.0 mg/kg/injection, schedule: Q01DX009 (ip), vehicle: Klucel (hydroxypropylcellulose) (HPC) 102 % of control | dose: 200.0 mg/kg/injection, schedule: Q01DX009 (ip), vehicle: Klucel (hydroxypropylcellulose) (HPC) 96 % of control

OCC1OC2C(NC(=S)N2c2ccccc2)C(O)C1O (stereo not drawn)
inactive: dose: 60.0 mg/kg/injection, schedule: Q01DX005 (ip), vehicle: saline with Tween-80 101 % of control | dose: 120.0 mg/kg/injection, schedule: Q01DX005 (ip), vehicle: saline with Tween-80 98 % of control | dose: 240.0 mg/kg/injection, schedule: Q01DX005 (ip), vehicle: saline with Tween-80 104 % of control

O=C(N=Cc1ccco1)C(=O)Nc1ccc(Cl)c([N+](=O)[O-])c1
inactive: [6] 100 % of control | [7] 91 % of control | dose: 200.0 mg/kg/injection, schedule: Q01DX009 (ip), vehicle: saline with Tween-80 96 % of control

NC1=NC(CNC(=O)c2cccc([N+](=O)[O-])c2)N(c2cccc(Cl)c2)C(N)=N1 (stereo not drawn)
inactive: dose: 50.0 mg/kg/injection, schedule: Q01DX005 (ip), vehicle: saline 100 % of control | dose: 100.0 mg/kg/injection, schedule: Q01DX005 (ip), vehicle: saline 107 % of control | dose: 200.0 mg/kg/injection, schedule: Q01DX005 (ip), vehicle: saline 109 % of control

O=[N+]([O-])c1cc2c(ccc3ccccc32)o1
inactive: [1] 102 % of control | [2] 103 % of control | [3] 117 % of control

CC(=O)Nc1cc(Cl)c2ncn(C3OC(CO)C(O)C3O)c2n1 (stereo not drawn)
inactive: dose: 25.0 mg/kg/injection, schedule: Q04DX003 (ip), vehicle: water 111 % of control | dose: 50.0 mg/kg/injection, schedule: Q04DX003 (ip), vehicle: water 112 % of control | dose: 100.0 mg/kg/injection, schedule: Q04DX003 (ip), vehicle: water 109 % of control | dose: 200.0 mg/kg/injection, schedule: Q04DX003 (ip), vehicle: water 100 % of control | dose: 400.0 mg/kg/injection, schedule: Q04DX003 (ip), vehicle: water 100 % of control
